Experimental data from ChEMBL document CHEMBL3885861, “Open TG-GATES”.

Species on record: Rattus norvegicus
Test: Open TG-GATES - Regimen: Daily Repeat
Format: toxicity, organism-based, Sprague-Dawley
Design: regimen Daily Repeat, gender Male, age 6 weeks
Conditions: in vivo, po, route gavage; for APTT / Bas / Eos / Fbg / Hb / Ht / Lym / MCH / MCHC / MCV / Mono / Neu / PT / Plat / RBC / Ret / WBC: tissue Blood; for KIDNEY_L / KIDNEY_R / KIDNEY_TOTAL: tissue Kidney; for LIVER: tissue Liver; for A/G / ALP / ALT / AST / BUN / CRE / Ca / Cl / DBIL / GLC / IP / K / LDH / Na / PL / RALB / TBIL / TC / TG / TP / gamma-GTP: tissue Plasma
[1] = 300 mg/kg, 72 h, dose level Middle, time 3 day
[2] = 300 mg/kg, […], dose level Middle, time 7 day
[3] = 300 mg/kg, […], dose level Middle, time 14 day
[4] = 300 mg/kg, […], dose level Middle, time 28 day
[5] = 1000 mg/kg, 72 h, dose level High, time 3 day
[6] = 1000 mg/kg, […], dose level High, time 7 day
[7] = 1000 mg/kg, […], dose level High, time 14 day
[8] = 1000 mg/kg, […], dose level High, time 28 day

## CC(C)(S)[C@@H](N)C(=O)O [PENICILLAMINE]
[1]
  TERMINAL_BW: 235.2 g
  APTT: 17.2 s
  Bas: 0.4%
  Eos: 1%
  Fbg: 301.4 mg/dL
  Hb: 13.7 g/dL
  Ht: 42.2%
  Lym: 79.2%
  MCH: 20.9 pg
  MCHC: 32.6%
  MCV: 64.1 fL
  Mono: 3.2%
  Neu: 15.4%
  PT: 14.1 s
  Plat: 114.9 x10_4/uL
  RBC: 658.6 x10_4/ul
  Ret: 7.6%
  WBC: 91.9 x10_2/uL
  KIDNEY_L: 1 g
  KIDNEY_R: 1 g
  KIDNEY_TOTAL: 2 g
  LIVER: 11.1 g
  A/G: 0.9
  ALP: 1461.8 IU/L
  ALT: 40.4 IU/L
  AST: 66.2 IU/L
  BUN: 14.4 mg/dL
  CRE: 0.2 mg/dL
  Ca: 11 mg/dL
  Cl: 106.6 meq/L
  DBIL: 0.012 mg/dL
  GLC: 181.6 mg/dL
  IP: 7.2 mg/dL
  K: 4 meq/L
  LDH: 102 IU/L
  Na: 144.6 meq/L
  PL: 159.2 mg/dL
  RALB: 2.8 g/dL
  TBIL: 0.028 mg/dL
  TC: 81.2 mg/dL
  TG: 102.8 mg/dL
  TP: 5.8 g/dL
  gamma-GTP: 1 IU/L
[2]
  TERMINAL_BW: 273.3 g
  APTT: 16.6 s
  Bas: 0%
  Eos: 1.4%
  Fbg: 377.6 mg/dL
  Hb: 13.4 g/dL
  Ht: 40.7%
  Lym: 75.4%
  MCH: 20.6 pg
  MCHC: 33.1%
  MCV: 62.4 fL
  Mono: 3.6%
  Neu: 18.8%
  PT: 14 s
  Plat: 122.4 x10_4/uL
  RBC: 652.2 x10_4/ul
  Ret: 5.9%
  WBC: 96 x10_2/uL
  KIDNEY_L: 1.2 g
  KIDNEY_R: 1.1 g
  KIDNEY_TOTAL: 2.3 g
  LIVER: 12.2 g
  A/G: 0.9
  ALP: 1362.2 IU/L
  ALT: 38.6 IU/L
  AST: 61 IU/L
  BUN: 15.6 mg/dL
  CRE: 0.2 mg/dL
  Ca: 10.8 mg/dL
  Cl: 103.8 meq/L
  DBIL: 0.012 mg/dL
  GLC: 189.4 mg/dL
  IP: 7.2 mg/dL
  K: 4 meq/L
  LDH: 67.4 IU/L
  Na: 141.6 meq/L
  PL: 164.8 mg/dL
  RALB: 2.7 g/dL
  TBIL: 0.034 mg/dL
  TC: 85.4 mg/dL
  TG: 113.4 mg/dL
  TP: 5.7 g/dL
  gamma-GTP: 1 IU/L
[3]
  TERMINAL_BW: 321.5 g
  APTT: 23.3 s
  Bas: 0.2%
  Eos: 1%
  Fbg: 375.6 mg/dL
  Hb: 14.7 g/dL
  Ht: 43.5%
  Lym: 81.2%
  MCH: 20.2 pg
  MCHC: 33.8%
  MCV: 59.8 fL
  Mono: 2.2%
  Neu: 15.2%
  PT: 14.3 s
  Plat: 133 x10_4/uL
  RBC: 727 x10_4/ul
  Ret: 5.2%
  WBC: 103.7 x10_2/uL
  KIDNEY_L: 1.2 g
  KIDNEY_R: 1.3 g
  KIDNEY_TOTAL: 2.5 g
  LIVER: 13.6 g
  A/G: 0.9
  ALP: 1395 IU/L
  ALT: 41.8 IU/L
  AST: 64.2 IU/L
  BUN: 15.4 mg/dL
  CRE: 0.2 mg/dL
  Ca: 10.9 mg/dL
  Cl: 105 meq/L
  DBIL: 0.008 mg/dL
  GLC: 176.4 mg/dL
  IP: 7.2 mg/dL
  K: 3.9 meq/L
  LDH: 100.2 IU/L
  Na: 142.8 meq/L
  PL: 160.2 mg/dL
  RALB: 2.8 g/dL
  TBIL: 0.04 mg/dL
  TC: 80.4 mg/dL
  TG: 119.2 mg/dL
  TP: 6 g/dL
  gamma-GTP: 1 IU/L
[4]
  TERMINAL_BW: 390 g
  APTT: 17.4 s
  Bas: 0.4%
  Eos: 1.2%
  Fbg: 485.2 mg/dL
  Hb: 14.4 g/dL
  Ht: 42.7%
  Lym: 78%
  MCH: 18.7 pg
  MCHC: 33.8%
  MCV: 55.4 fL
  Mono: 2.6%
  Neu: 17.2%
  PT: 14.7 s
  Plat: 132.7 x10_4/uL
  RBC: 770 x10_4/ul
  Ret: 3.1%
  WBC: 131.5 x10_2/uL
  KIDNEY_L: 1.4 g
  KIDNEY_R: 1.4 g
  KIDNEY_TOTAL: 2.9 g
  LIVER: 15.6 g
  A/G: 0.9
  ALP: 911.4 IU/L
  ALT: 33.8 IU/L
  AST: 56.8 IU/L
  BUN: 14.8 mg/dL
  CRE: 0.2 mg/dL
  Ca: 10.8 mg/dL
  Cl: 105.6 meq/L
  DBIL: 0.008 mg/dL
  GLC: 186.8 mg/dL
  IP: 6.2 mg/dL
  K: 3.6 meq/L
  LDH: 60.6 IU/L
  Na: 144 meq/L
  PL: 147 mg/dL
  RALB: 2.8 g/dL
  TBIL: 0.072 mg/dL
  TC: 77 mg/dL
  TG: 87.8 mg/dL
  TP: 6.1 g/dL
  gamma-GTP: 1 IU/L
[5]
  TERMINAL_BW: 225.3 g
  APTT: 20.2 s
  Bas: 0%
  Eos: 1.2%
  Fbg: 286.4 mg/dL
  Hb: 13.2 g/dL
  Ht: 40.3%
  Lym: 78.6%
  MCH: 20.1 pg
  MCHC: 32.7%
  MCV: 61.6 fL
  Mono: 2.6%
  Neu: 16.8%
  PT: 14.4 s
  Plat: 121.8 x10_4/uL
  RBC: 657.4 x10_4/ul
  Ret: 6.2%
  WBC: 87.8 x10_2/uL
  KIDNEY_L: 1 g
  KIDNEY_R: 1 g
  KIDNEY_TOTAL: 2 g
  LIVER: 9.8 g
  A/G: 1
  ALP: 1073 IU/L
  ALT: 38 IU/L
  AST: 60.8 IU/L
  BUN: 13.2 mg/dL
  CRE: 0.2 mg/dL
  Ca: 10.7 mg/dL
  Cl: 105.8 meq/L
  DBIL: 0.012 mg/dL
  GLC: 166 mg/dL
  IP: 7.5 mg/dL
  K: 4.1 meq/L
  LDH: 94.2 IU/L
  Na: 144.2 meq/L
  PL: 143 mg/dL
  RALB: 2.8 g/dL
  TBIL: 0.038 mg/dL
  TC: 74.8 mg/dL
  TG: 50.4 mg/dL
  TP: 5.7 g/dL
  gamma-GTP: 0.8 IU/L
[6]
  TERMINAL_BW: 247.8 g
  APTT: 21.8 s
  Bas: 0%
  Eos: 1.4%
  Fbg: 452.4 mg/dL
  Hb: 13.2 g/dL
  Ht: 40.6%
  Lym: 79.2%
  MCH: 19.2 pg
  MCHC: 32.5%
  MCV: 59 fL
  Mono: 3%
  Neu: 15%
  PT: 14.6 s
  Plat: 131.3 x10_4/uL
  RBC: 687.8 x10_4/ul
  Ret: 4.6%
  WBC: 104.2 x10_2/uL
  KIDNEY_L: 1.1 g
  KIDNEY_R: 1.1 g
  KIDNEY_TOTAL: 2.1 g
  LIVER: 10.7 g
  A/G: 0.9
  ALP: 1010.8 IU/L
  ALT: 37 IU/L
  AST: 49.6 IU/L
  BUN: 15.2 mg/dL
  CRE: 0.2 mg/dL
  Ca: 10.8 mg/dL
  Cl: 104.4 meq/L
  DBIL: 0.016 mg/dL
  GLC: 169.2 mg/dL
  IP: 6.9 mg/dL
  K: 3.8 meq/L
  LDH: 72.4 IU/L
  Na: 142.4 meq/L
  PL: 156.4 mg/dL
  RALB: 2.8 g/dL
  TBIL: 0.066 mg/dL
  TC: 86.8 mg/dL
  TG: 59.2 mg/dL
  TP: 5.9 g/dL
  gamma-GTP: 1 IU/L
[7]
  TERMINAL_BW: 282 g
  APTT: 22.3 s
  Bas: 0%
  Eos: 1.2%
  Fbg: 520.8 mg/dL
  Hb: 13.1 g/dL
  Ht: 39.8%
  Lym: 82.6%
  MCH: 18.7 pg
  MCHC: 32.9%
  MCV: 56.8 fL
  Mono: 2.2%
  Neu: 13.2%
  PT: 15.3 s
  Plat: 164 x10_4/uL
  RBC: 701 x10_4/ul
  Ret: 4.9%
  WBC: 115.3 x10_2/uL
  KIDNEY_L: 1.2 g
  KIDNEY_R: 1.2 g
  KIDNEY_TOTAL: 2.3 g
  LIVER: 11.8 g
  A/G: 0.9
  ALP: 881.6 IU/L
  ALT: 37.2 IU/L
  AST: 52.4 IU/L
  BUN: 13 mg/dL
  CRE: 0.2 mg/dL
  Ca: 10.7 mg/dL
  Cl: 105.4 meq/L
  DBIL: 0.008 mg/dL
  GLC: 174.6 mg/dL
  IP: 6.7 mg/dL
  K: 3.8 meq/L
  LDH: 79.6 IU/L
  Na: 142.8 meq/L
  PL: 148.6 mg/dL
  RALB: 2.7 g/dL
  TBIL: 0.058 mg/dL
  TC: 81.6 mg/dL
  TG: 43.8 mg/dL
  TP: 5.8 g/dL
  gamma-GTP: 1 IU/L
[8]
  TERMINAL_BW: 342.2 g
  APTT: 17.8 s
  Bas: 0.4%
  Eos: 1.8%
  Fbg: 646.8 mg/dL
  Hb: 12.1 g/dL
  Ht: 37.3%
  Lym: 71.2%
  MCH: 16.1 pg
  MCHC: 32.4%
  MCV: 49.8 fL
  Mono: 4.2%
  Neu: 21.6%
  PT: 15.7 s
  Plat: 156.3 x10_4/uL
  RBC: 749.2 x10_4/ul
  Ret: 5.6%
  WBC: 153.3 x10_2/uL
  KIDNEY_L: 1.4 g
  KIDNEY_R: 1.4 g
  KIDNEY_TOTAL: 2.8 g
  LIVER: 14.6 g
  A/G: 0.8
  ALP: 458.6 IU/L
  ALT: 26.8 IU/L
  AST: 43.6 IU/L
  BUN: 14.2 mg/dL
  CRE: 0.2 mg/dL
  Ca: 10.5 mg/dL
  Cl: 105 meq/L
  DBIL: 0.02 mg/dL
  GLC: 162.4 mg/dL
  IP: 6.5 mg/dL
  K: 4 meq/L
  LDH: 70.4 IU/L
  Na: 144 meq/L
  PL: 137.6 mg/dL
  RALB: 2.7 g/dL
  TBIL: 0.1 mg/dL
  TC: 77.2 mg/dL
  TG: 45.4 mg/dL
  TP: 5.9 g/dL
  gamma-GTP: 1.6 IU/L
